Legend:
red beet (Beta vulgaris) = test: Greenhouse testing: foliar spray of Ethephon on crop plants, pigment content of roots at harvest; type: in vivo; conditions: for Betanin / Vulgaxanthin: greenhouse, spray rate not given
Experimental: Planting of varieties were staggered across several weeks to vary maturity for one spray. Two spray rates were administered across all plants on one spray date ([…]). Harvesting was done 3-4 weeks after spray. Initial visualization was performed prior to crop samples sent to laboratory for evaluation.

beet plant = test: Pre-harvest foliar spraying of ethylene-releasing compound on beet leaves, betalain concentration of roots versus unsprayed controls; type: in vivo, Beta vulgaris
Text: In one embodiment, the method comprises the pre-harvest foliar spraying of an ethylene-releasing compound on a beet plant, wherein the pre-harvest foliar spraying of an ethylene-releasing compound leaves the mean betalain concentration in the roots of the treated plants increased by more than 200% when compared to controls without any spraying.
The method described herein may be used for commercially-relevant, large scale production of a betalain pigment, e.g., the large scale isolation from a beet crop plant. Accordingly, it may be that the isolation of betalains of step (iii) is done from at least 15 different harvested beet plants, more preferably from at least 100 different harvested beet plants, even more preferably from at least 500 different harvested beet plants, or such as from at least 1000 different harvested beet plants. It is evident that when at least 15 different harvested beet plants are used in isolation step (iii), then foliar spraying of ethylene-releasing compound (e.g., 2-Chloroethylphosphonic acid) of step (i) has been done on at least 15 different beet plants and in step (ii), at least 15 different crop plants have been harvested. As discussed above, the present inventors identified that by pre-harvest foliar spraying of 2-Chloroethylphosphonic acid (e.g., 2-Chloroethylphosphonic acid) on beet leaves the mean betalain concentration of treated plants increased by an increased amount when compared to controls without any spraying.
Preferably, the amount of isolated betalain pigment in step (iii) of the method is an amount of betalain pigment which is at least 15% higher (w/w), more preferably at least 20/a higher (w/w), even more preferably at least 25% higher (w/w), and most preferably at least 35% higher (w/w), as compared to the amount of betalain pigment that is isolated in a control experiment without use of the ethylene-releasing compound in step (i). The purpose of a control experiment is to analyze the effect of using ethylene-releasing compound (e.g. 2-Chloroethylphosphonic acid). […]

[1] = harvest 7, 10, 13, 16, 19, 22, 25, 26, 29 and 35 weeks after planting, every harvest point

With `O=P(O)(O)CCCl` [Ethephon, 2-Chloroethylphosphonic acid] the Betanin (red beet (Beta vulgaris); beet variety Chioggia) was 320 mg/kg, dry basis, the Vulgaxanthin (red beet (Beta vulgaris); beet variety Chioggia) was 380 mg/kg, dry basis and the Anthocyanin levels (red beet (Beta vulgaris); carrots, beets and radishes, spray 120 g/h and 360 g/h, harvest 3-4 weeks after spray) was “Enhanced”. For the same compound, the Betanin (red beet (Beta vulgaris); red beet variety Nochowski) was 9,400 mg/kg, dry basis, the Vulgaxanthin (red beet (Beta vulgaris); red beet variety Nochowski) was 6,700 mg/kg, dry basis and the Betanin (red beet (Beta vulgaris); red beet variety Red Cloud) was 6,000 mg/kg, dry basis. For the same compound, the Vulgaxanthin (red beet (Beta vulgaris); red beet variety Red Cloud) was 3,300 mg/kg, dry basis, the Betanin (red beet (Beta vulgaris); red beet variety Ruby Queen) was 3,500 mg/kg, dry basis and the Vulgaxanthin (red beet (Beta vulgaris); red beet variety Ruby Queen) was 800 mg/kg, dry basis. The “mean betanin concentration of treated roots” value (beet plant; [1]) was “higher”, the “mean vulgaxanthin concentration of treated roots” value (beet plant; [1]) was “higher” and the “mean betalain concentration of treated plants compared to controls without any spraying” value (beet plant; pre-harvest foliar spraying on beet leaves) was “increased”.

Source: patent US20230172132A1, “A METHOD FOR […] CONTENT IN A CROP PLANT” (SENSIENT COLORS, LLC, priority 2020, published 2023)
